Laboratory results published in article PMC7190706, “A Self-Assembling Lipidic Peptide and Selective Partial V2 Receptor Agonist Inhibits Urine Production” (Scientific Reports, 2020).

Columns and labels:
V2 receptor = molecular target: T1, V2 receptor (Canis lupus familiaris, UniProt O77808); assay: V2 receptor agonism, cAMP accumulation in MDCK cells (cAMP EIA); format: cell-based, dog
T1 construct: MDCK cells expressing the V2 receptor were cultured; endogenous in cells; host or cells: MDCK cells
T1 sequence (O77808 whole entry): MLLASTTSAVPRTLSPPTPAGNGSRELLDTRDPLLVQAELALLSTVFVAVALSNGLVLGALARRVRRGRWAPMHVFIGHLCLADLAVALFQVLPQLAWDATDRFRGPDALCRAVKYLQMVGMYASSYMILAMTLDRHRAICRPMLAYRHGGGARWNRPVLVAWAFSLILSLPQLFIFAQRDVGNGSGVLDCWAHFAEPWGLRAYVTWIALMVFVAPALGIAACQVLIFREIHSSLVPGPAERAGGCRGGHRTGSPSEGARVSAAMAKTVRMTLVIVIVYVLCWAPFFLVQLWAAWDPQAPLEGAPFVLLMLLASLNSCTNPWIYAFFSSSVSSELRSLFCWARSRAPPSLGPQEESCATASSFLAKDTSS
Method: We thus used the V2 receptor from MDCK cells, V1a receptors from A7r5 cells and OT receptors from rat uterine strips for our receptor activity assays.
MDCK cells expressing the V2 receptor were cultured in Eagle’s Essential Minimum Medium (EMEM) supplemented with foetal bovine serum (FBS, 10% v/v), L-Glutamine (1% v/v) and non-essential amino acids (NEAA 1% v/v). […] The cell culture medium was changed every 2 days. Cells were sub-cultured every 7 days or upon reaching confluence using trypsin/ ethylene diamine tetraacetic acid (EDTA) (0.25%w/v trypsin/ 0.01%w/v EDTA in phosphate buffered saline, 3 mL) solution to dissociate the cells and the cells reseeded at one third of their original density.
The cell culture media was changed daily. On the day of the experiment, the cells were washed with Dulbecco’s phosphate-buffered saline (DPBS) without calcium and magnesium and incubated for 1 hour in cell culture medium with isobutyl methylxanthine (IBMX, 0.5 mM). IBMX is a phosphodiesterase inhibitor that prevents the breakdown of cAMP within the cells; allowing for total quantification of the analyte cAMP. […]
for total quantification of the analyte cAMP. […]
was quantified from the cell lysate (0.1 mL) using a competition based EIA as per the […]
acid (0.1 M, 0.1 mL) and the plates read at 450 nm using an ELx808 microplate reader […]
concentration of cAMP per well was determined from equation 1. […]

MDCK cell line = settings: read-out: EC50 functional activity (fluid secretion); cited from earlier work
OT receptor = molecular target: T2, OT receptor (Rattus norvegicus, UniProt P70536); assay: OT induced contractions of isolated uterine strips (organ bath); settings: for 1/Rmax of double reciprocal plot (1/R vs 1/[OT]): Rmax = maximum contractile response in cm
T2 construct: OT receptors from rat uterine strips for our receptor activity assays; from tissue; host or cells: uterine strips of female Wistar rats
T2 sequence (P70536 1-388): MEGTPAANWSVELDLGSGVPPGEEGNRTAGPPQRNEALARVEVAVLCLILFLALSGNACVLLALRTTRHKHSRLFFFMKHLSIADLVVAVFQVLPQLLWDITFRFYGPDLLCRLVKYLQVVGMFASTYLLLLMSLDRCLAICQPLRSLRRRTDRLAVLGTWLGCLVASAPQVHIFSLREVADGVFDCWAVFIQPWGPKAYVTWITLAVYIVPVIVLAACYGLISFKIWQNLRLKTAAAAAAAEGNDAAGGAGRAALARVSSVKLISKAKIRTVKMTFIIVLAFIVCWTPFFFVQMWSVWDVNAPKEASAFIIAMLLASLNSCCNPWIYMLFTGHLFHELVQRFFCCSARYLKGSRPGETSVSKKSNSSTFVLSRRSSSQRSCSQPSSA
Text: The uterus was excised and dissected into longitudinal strips (0.5 ×1.3–1.4 cm) from the anti-mesometrial side of the mid-portion of horns which contained implantation sites.
Only one strip from each animal was used. The uterine strip was tied at the bottom end to a fixed metal hook and at the top end to a force displacement transducer (Harvard Instruments, Kent, UK) using a cotton thread. The force displacement transducer was coupled to an amplifier driving a direct writing oscillograph (Universal Oscillograph, Harvard, Kent, UK). A cumulative dose procedure was used and isotonic contractions recorded.
DMF was added as DMF had been used to solubilise METx. […] The mean peak amplitude (MPA) was calculated from Eq. 1.1 MPA=ΣPH/n where PH = peak heights obtained within the 10 minute period immediately after addition of METx, OT or dimethylformamide and n = number of peaks within the same 10 minute period. The frequency of isotonic contractions was also evaluated during the 10 minute period immediately after the addition of METx, OT or dimethylformamide.
The organ bath was not washed out until a maximal response was reached. The MPA was calculated as shown in Equation 1, except that the recordings were done after the addition of each dose of OT and the MPA was calculated over a 5 minute period. To quantify the effect of METx on OT induced contractions, METx (final bath concentration = 0.1, 0.3 or 0.6 µM) was added to the organ bath prior to the addition of OT (Table 2 – Supplementary Information). […] Results were plotted as a percentage of the maximum contraction obtained with KCl against concentration. A double reciprocal plot was used to assess the nature of the receptor antagonism observed.
(1 picture or pasted object on this page, not shown here)

[1] = system: spontaneous uterine contractions; assay: Spontaneous contractions of isolated uterine strips (organ bath); set-up: species or system rat; settings: METx 41 nM
Method: Female Wistar rats (203–225 g) were killed with CO2 on the day of the experiments. The uterus was excised and dissected into longitudinal strips (0.5 ×1.3–1.4 cm) from the anti-mesometrial side of the mid-portion of horns which contained implantation sites.
The uterine strips were suspended in an organ bath that contained physiological salt solution (PSS, 25 ml: 116 mM NaCl, 4.6 mM KCl, 1.16 mM NaH2PO4.H2O, 1.16 mM MgSO4.7H2O, 21.9 mM NaHCO3, 1.8 mM CaCl2.2H2O, 11.6 mM dextrose, 0.03 mM CaNa2EDTA, pH = […]). The water-jacketed bath was maintained at 36 °C and aerated with a mixture of 95% O2 and 5% CO2. Only one strip from each animal was used. The uterine strip was tied at the bottom end to a fixed metal hook and at the top end to a force displacement transducer (Harvard Instruments, Kent, UK) using a cotton thread. The force displacement transducer was coupled to an amplifier driving a direct writing oscillograph (Universal Oscillograph, Harvard, Kent, UK). A cumulative dose procedure was used and isotonic contractions recorded.
To quantify the effect of METx on spontaneous uterine contractions the myometrial strips from the same uterus as above, but from the opposite horn, were equilibrated for 60 min within the organ bath and then a single dose of DMF applied followed by doses of METx as shown in Table 1 in the Supplementary Information. […]

[2] = Plasma stability in 30% rat plasma, HPLC; format: in vitro ADME; settings: 37 °C
Method: The plasma stability of METx was evaluated prior to an in vivo study. Blood was collected from male Sprague Dawley rats (n = 3, 200–250 g) into a vacutainer coated with ethylene diamine tetra-acetic acid (EDTA) and kept on ice (4 °C) until the plasma could be separated by centrifugation (10 min at 2000g and 4 °C, Hermle z323k centrifuge, HERMLE Labortechnik, Germany). The separated rat plasma was stored at −20 °C until required. On the day of the experiment, the plasma was thawed just prior to the experiment and diluted to 30% v/v using NaCl (0.9%). METx (7.2 × 10^−4M, 50 μL) was added to the diluted plasma (30% v/v, 450μL) that had been allowed to warm for 30 minutes at 37 °C either as a solution in dimethylsulfoxide or as a GCPQ nanoparticle formulation dispersed in water. The formulations and free drug were incubated at 37 °C with shaking for a maximum of 4 hours. At regular time intervals aliquots (50μL) were removed and mixed with dimethylformamide (150μL) to dissolve the METx and precipitate the plasma proteins. Samples were then immediately vortexed and centrifuged for 10 minutes at 13,000 rpm (MSE micro centaur centrifuge, MSE, UK). The supernatant (100μL) was collected and 40 μL was analysed using a reverse phase high performance liquid chromatography (HPLC) method. HPLC analyses was performed using an Agilent 1200 HPLC system (Agilent Technologies, UK) equipped with a quaternary pump, degasser, autosampler and a UV detector. Samples were chromatographed over a reverse phase column: Phenomenex Onyx Monolithic C18 column (5μm, 4.6 ×100 mm, Phenomenex, UK) connected in series with a guard column (5μm, 4.6 ×10 mm). The column temperature was kept constant at 35 °C. Separation was performed using an acetonitrile, water mobile phase gradient method (Table 3 – Supplementary Information) at a flow rate of 1.5 mL per minute, with detection at a wavelength of 280 nm.

[3] = Spontaneously voided urine volume and osmolality after intravenous injection in healthy rats; format: in vivo; settings: METx (5: 1) nanoparticle formulation, rat
Method: Male Sprague Dawley rats (220–250 g) were housed five per cage in an air conditioned unit maintained at 20–22 °C and 50–60% humidity, with lighting controlled on a twelve-hour cycle. The lights were switched on at 07:00 and off at 19:00. Animals were allowed free access to standard rodent chow and water. Before experimentation, animals were habituated for 7 days within the unit. Prior to testing animals were acclimatised to the procedure room for 1 hour. Animals were also acclimatised to the metabolic cages for 20 minutes per day for 5 days before the day of experiment. Animals were randomly assigned into one of four groups; untreated, and animals receiving an intravenous injection of 10, 20 or 40 mg kg^−1 of METx as a GCPQ, METx (5: 1) nanoparticle formulation (n = 3) in a dose volume of 0.9 mL. The formulations were freshly prepared on the morning of the experiment as described above and the pH of the formulation adjusted to pH = 7 using sodium hydroxide (1 M). After receiving their METx formulations, animals were placed within individual metabolic cages (Techniplast, Italy) with access to water. Spontaneously voided urine was collected for 4 hours. Urine osmolality was determined by freezing point depression using a Type 5r osmometer (Loser, Germany).

V1a receptor = molecular target: T3, V1a receptor (Rattus norvegicus, UniProt P30560); assay: V1a receptor agonism, IP-1 ELISA in A7r5 cells; format: cell-based
T3 construct: V1a receptors from A7r5 cells; endogenous in cells; host or cells: A7r5 rat smooth muscle cells
T3 sequence (P30560 whole entry): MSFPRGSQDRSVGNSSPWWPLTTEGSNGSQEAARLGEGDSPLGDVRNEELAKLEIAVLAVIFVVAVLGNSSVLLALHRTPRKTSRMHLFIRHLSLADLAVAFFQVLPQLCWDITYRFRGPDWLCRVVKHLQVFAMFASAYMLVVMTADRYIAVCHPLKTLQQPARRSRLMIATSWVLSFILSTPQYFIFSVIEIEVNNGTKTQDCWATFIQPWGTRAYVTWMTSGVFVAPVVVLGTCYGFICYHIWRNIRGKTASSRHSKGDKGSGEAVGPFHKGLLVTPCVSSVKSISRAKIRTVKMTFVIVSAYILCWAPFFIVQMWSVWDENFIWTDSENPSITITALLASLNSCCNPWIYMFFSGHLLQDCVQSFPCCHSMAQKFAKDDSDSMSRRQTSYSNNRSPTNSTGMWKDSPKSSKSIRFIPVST
Text: microplate reader. […] The
hours. […] The cells were
manufacturer’s instructions.

human V1a receptor = system: human V1a receptor; set-up: method as in PMID 22375852; settings: cited from earlier work

Compound: N=C(N)NCCC[C@H](NC(=O)[C@@H]1CCCN1C(=O)[C@@H]1CSSC[C@H](N)C(=O)N[C@@H](Cc2ccc(O)cc2)C(=O)N[C@@H](Cc2ccccc2)C(=O)N[C@@H](CCC(N)=O)C(=O)N[C@@H](CC(N)=O)C(=O)N1)C(=O)NCC(N)=O [AVP, arginine vasopressin, reference compound]
- concentration at which the maximal cAMP response was seen (V2 receptor): 100 nM
- EC50 (MDCK cell line): 0.36 nM

Compound: CCCCCCCCCCCCCCCC(=O)NCCCC[C@H](NC(=O)CNC(=O)[C@H](CC(C)C)NC(=O)[C@@H]1CCCN1C(=O)[C@@H]1CSSC[C@H](N)C(=O)N[C@@H](Cc2ccc(O)cc2)C(=O)N[C@@H]([C@@H](C)CC)C(=O)N[C@@H](CCC(N)=O)C(=O)N[C@@H](CC(N)=O)C(=O)N1)C(=O)O [METx]
- concentration at which the maximal cAMP response was seen (V2 receptor): 10 nM
- OT antagonist concentration relative to EC50 at the V2 receptor (OT receptor; 300 nM versus V2 EC50): 100 fold
- effect on OT induced contractions (OT receptor; 100 nm of inhibitor): not effective in reducing OT induced contractions
- shift of the OT dose response curve to the right (OT receptor; METx 300 nM and 600 nM, amplitude of OT induced contractions, p < 0.05): two orders of magnitude
- nature of antagonism at the OT receptor (OT receptor; from double reciprocal plots): non-competitive antagonist
- 1/Rmax of double reciprocal plot (1/R vs 1/[OT]) (OT receptor; inhibitor 100 nM): 0.48
- 1/Rmax of double reciprocal plot (1/R vs 1/[OT]) (OT receptor; inhibitor 300 nM): 0.97
- 1/Rmax of double reciprocal plot (1/R vs 1/[OT]) (OT receptor; inhibitor 600 nM): 1.33
- concentration at which antagonism at the OT receptor starts (OT receptor; uterine strips): 300 nM
- effect on spontaneous uterine contractions [1]: no effect
- order of stability ([2]; 30% rat plasma): METx, Polymer (1: 5)> METx, Polymer (1: 7)> METx> METx, Polymer (1: 4)
- degradation over the 4 hour incubation ([2]; 30% rat plasma, 4 hour): completely degraded
- time to complete degradation ([2]; 30% v/v rat plasma): ≤ 60 min
- osmolality of the urine ([3]; 20 mg kg^−1 intravenous as GCPQ): increased significantly
- urine production ([3]; 40 mg kg^−1 intravenous as GCPQ, 4 hour observation period): no urine at all
- spontaneously voided urine volume, dose dependence ([3]; 10, 20 or 40 mg kg^−1 intravenous as GCPQ, 4 hours): dose correlated reduction in urine production

Compound: CC[C@H](C)[C@@H]1NC(=O)[C@H](Cc2ccc(O)cc2)NC(=O)[C@@H](N)CSSC[C@@H](C(=O)N2CCC[C@H]2C(=O)N[C@@H](CC(C)C)C(=O)NCC(N)=O)NC(=O)[C@H](CC(N)=O)NC(=O)[C@H](CCC(N)=O)NC1=O [OT, oxytocin, reference compound]
- EC50 (OT receptor): 0.081 nM

Compound: desmopressin
- agonism at the V1a receptor (V1a receptor): not an agonist at the V1a receptor
- EC50 (MDCK cell line): 0.7 nM
- affinity for the human V1a receptor (human V1a receptor): does not show any affinity
